Tests used:
Assay in all cases: Kinase profiling in a biochemical assay panel (mobility shift assays and ELISA), %-inhibition at 1 μM; selectivity entropy
[1] = molecular target: panel of more than 300 wild-type and mutant kinases (313 kinase panel) (Homo sapiens, UniProt P42685); settings: kinase FRK; compound at 1 μM
[2] = molecular target: panel of more than 300 wild-type and mutant kinases (313 kinase panel) (Homo sapiens, UniProt Q8IU85); settings: kinase CaMK1δ; 1 μM compound
[3] = molecular target: T1, panel of more than 300 wild-type and mutant kinases (313 kinase panel) (Homo sapiens, UniProt O15264); settings: kinase p38δ; 1 μM
T1 sequence (O15264 1-365): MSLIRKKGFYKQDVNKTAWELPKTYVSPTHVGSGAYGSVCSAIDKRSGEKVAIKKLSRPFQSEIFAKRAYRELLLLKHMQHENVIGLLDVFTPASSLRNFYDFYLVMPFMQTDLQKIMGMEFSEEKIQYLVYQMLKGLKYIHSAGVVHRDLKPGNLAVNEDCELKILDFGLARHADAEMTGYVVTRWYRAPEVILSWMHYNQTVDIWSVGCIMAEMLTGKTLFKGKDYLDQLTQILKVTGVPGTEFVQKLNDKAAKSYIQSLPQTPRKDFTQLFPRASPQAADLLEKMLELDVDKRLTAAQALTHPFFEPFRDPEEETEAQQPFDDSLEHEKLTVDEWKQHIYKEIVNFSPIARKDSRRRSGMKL

[4] = molecular target: T2, panel of more than 300 wild-type and mutant kinases (313 kinase panel) (Homo sapiens, UniProt Q9NWZ3); settings: kinase IRAK4; compound at 1 μM
T2 sequence (Q9NWZ3 1-460): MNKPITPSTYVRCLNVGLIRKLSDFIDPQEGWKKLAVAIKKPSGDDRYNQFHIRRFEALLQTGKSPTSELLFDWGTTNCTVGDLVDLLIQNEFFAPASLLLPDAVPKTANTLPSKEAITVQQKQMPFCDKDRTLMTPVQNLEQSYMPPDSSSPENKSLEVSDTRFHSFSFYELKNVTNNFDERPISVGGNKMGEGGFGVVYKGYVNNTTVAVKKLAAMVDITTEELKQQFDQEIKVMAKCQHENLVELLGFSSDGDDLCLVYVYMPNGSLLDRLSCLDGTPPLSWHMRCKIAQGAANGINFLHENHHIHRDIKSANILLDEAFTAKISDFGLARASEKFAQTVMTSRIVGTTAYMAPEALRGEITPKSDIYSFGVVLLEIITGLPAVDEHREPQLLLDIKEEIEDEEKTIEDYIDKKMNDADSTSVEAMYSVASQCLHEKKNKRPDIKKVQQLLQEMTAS

[5] = molecular target: panel of more than 300 wild-type and mutant kinases (313 kinase panel) (Homo sapiens, UniProt Q9P0L2)
[6] = molecular target: panel of more than 300 wild-type and mutant kinases (313 kinase panel) (Homo sapiens, UniProt P27361); settings: kinase Erk1; compound at 1 μM
[7] = molecular target: T3, panel of more than 300 wild-type and mutant kinases (313 kinase panel) (Homo sapiens, UniProt P52564)
T3 sequence (P52564 1-334): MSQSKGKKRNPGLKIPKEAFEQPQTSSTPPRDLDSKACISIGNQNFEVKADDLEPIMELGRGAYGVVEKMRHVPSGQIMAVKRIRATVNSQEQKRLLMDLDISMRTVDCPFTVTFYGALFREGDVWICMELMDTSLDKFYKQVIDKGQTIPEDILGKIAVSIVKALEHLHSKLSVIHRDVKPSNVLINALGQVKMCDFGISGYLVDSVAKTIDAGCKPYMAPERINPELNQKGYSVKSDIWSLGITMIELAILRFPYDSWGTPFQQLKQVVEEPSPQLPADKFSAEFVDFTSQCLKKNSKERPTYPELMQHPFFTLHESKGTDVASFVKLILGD

[8] = molecular target: T4, panel of more than 300 wild-type and mutant kinases (313 kinase panel) (Homo sapiens, UniProt O15146); settings: kinase MUSK; 1 μM
T4 sequence (O15146 24-869): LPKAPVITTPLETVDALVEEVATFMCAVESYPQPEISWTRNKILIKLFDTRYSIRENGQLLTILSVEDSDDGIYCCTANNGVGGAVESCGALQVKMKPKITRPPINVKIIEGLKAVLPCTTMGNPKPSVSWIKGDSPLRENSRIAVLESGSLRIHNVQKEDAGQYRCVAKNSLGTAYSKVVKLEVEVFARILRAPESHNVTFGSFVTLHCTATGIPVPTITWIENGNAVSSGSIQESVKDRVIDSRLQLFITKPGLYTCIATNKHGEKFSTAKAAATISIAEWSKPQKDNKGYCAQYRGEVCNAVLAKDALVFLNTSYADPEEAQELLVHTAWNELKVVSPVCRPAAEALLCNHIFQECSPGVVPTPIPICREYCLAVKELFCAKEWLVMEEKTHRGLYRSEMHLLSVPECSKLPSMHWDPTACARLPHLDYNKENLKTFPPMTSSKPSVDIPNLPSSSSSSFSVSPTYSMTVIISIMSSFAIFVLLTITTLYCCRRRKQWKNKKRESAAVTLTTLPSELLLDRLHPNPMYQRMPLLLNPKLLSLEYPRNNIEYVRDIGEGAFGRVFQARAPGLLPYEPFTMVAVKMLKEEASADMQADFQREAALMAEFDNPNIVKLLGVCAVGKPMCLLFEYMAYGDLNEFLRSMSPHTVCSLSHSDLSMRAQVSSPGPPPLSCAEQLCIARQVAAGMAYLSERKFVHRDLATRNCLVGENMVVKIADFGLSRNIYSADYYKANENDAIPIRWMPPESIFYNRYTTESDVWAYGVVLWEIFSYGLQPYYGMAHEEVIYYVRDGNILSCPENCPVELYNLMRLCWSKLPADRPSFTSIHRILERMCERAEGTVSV

[9] = molecular target: panel of more than 300 wild-type and mutant kinases (313 kinase panel) (Homo sapiens, UniProt P49759); settings: kinase CLK1; 1 μM compound
[10] = kinase MAP2K6, compound at 1 μM

panel of more than 300 wild-type and mutant kinases (313 kinase panel) (Homo sapiens, UniProt P42685), sequence (P42685 whole entry, stated change not applied): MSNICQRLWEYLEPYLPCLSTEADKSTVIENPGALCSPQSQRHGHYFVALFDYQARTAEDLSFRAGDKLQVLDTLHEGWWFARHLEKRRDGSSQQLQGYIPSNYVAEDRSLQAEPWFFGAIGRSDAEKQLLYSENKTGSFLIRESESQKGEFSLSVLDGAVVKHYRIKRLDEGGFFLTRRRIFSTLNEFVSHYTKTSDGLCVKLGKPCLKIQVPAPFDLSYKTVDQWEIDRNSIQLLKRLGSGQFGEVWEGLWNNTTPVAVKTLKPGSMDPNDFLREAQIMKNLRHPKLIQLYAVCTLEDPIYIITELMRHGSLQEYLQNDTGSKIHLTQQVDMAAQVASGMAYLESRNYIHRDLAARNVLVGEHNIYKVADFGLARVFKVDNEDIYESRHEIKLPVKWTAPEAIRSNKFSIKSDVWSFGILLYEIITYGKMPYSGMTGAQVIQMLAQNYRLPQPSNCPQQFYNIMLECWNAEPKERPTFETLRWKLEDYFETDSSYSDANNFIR
panel of more than 300 wild-type and mutant kinases (313 kinase panel) (Homo sapiens, UniProt Q9P0L2), sequence (Q9P0L2 whole entry, change not shown): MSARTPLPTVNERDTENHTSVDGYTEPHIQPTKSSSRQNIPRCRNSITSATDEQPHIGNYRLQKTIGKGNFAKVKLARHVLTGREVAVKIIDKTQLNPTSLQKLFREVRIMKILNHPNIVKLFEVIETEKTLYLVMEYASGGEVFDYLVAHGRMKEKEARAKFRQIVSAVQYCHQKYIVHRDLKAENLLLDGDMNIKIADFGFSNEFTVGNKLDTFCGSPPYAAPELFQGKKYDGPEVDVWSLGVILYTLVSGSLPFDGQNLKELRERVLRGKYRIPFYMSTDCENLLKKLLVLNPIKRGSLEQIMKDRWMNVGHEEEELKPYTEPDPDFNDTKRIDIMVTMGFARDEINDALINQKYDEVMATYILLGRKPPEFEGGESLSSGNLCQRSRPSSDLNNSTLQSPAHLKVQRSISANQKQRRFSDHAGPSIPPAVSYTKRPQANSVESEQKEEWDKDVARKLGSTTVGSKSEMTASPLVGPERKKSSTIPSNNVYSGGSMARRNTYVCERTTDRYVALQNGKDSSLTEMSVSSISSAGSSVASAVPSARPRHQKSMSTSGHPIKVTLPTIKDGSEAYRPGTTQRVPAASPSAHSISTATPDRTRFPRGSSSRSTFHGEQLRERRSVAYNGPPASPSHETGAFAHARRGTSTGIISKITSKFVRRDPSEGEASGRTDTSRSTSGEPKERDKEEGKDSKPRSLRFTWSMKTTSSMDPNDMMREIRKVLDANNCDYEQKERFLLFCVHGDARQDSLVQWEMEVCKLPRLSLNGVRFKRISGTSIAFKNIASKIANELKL
panel of more than 300 wild-type and mutant kinases (313 kinase panel) (Homo sapiens, UniProt P49759), sequence (P49759 whole entry, change not shown): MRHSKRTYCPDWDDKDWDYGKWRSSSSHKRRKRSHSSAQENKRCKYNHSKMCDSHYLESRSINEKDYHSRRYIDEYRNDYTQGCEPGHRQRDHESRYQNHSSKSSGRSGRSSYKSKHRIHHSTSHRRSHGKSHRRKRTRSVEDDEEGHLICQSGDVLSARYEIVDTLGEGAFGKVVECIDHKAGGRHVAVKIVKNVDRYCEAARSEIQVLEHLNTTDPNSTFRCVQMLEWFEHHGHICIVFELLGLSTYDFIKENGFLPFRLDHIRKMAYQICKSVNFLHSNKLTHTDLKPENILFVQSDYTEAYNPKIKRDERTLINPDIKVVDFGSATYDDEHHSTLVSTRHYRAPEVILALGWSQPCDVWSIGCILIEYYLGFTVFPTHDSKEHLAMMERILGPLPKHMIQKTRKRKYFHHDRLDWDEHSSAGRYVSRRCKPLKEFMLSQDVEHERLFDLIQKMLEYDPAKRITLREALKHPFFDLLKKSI
panel of more than 300 wild-type and mutant kinases (313 kinase panel) (Homo sapiens, UniProt P27361), sequence (P27361 whole entry, change not shown): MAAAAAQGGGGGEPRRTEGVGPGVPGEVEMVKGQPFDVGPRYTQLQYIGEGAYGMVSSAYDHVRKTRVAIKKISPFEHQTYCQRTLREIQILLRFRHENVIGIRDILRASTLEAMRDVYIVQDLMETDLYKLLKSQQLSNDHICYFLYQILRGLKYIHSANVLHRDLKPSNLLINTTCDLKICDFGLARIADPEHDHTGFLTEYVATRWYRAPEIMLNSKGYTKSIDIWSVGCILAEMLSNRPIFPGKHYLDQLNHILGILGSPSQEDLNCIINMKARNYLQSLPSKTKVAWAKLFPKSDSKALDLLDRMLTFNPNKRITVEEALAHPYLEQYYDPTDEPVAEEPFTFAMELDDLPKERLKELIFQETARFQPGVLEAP

Row | Structure (SMILES) | %-inhibition of FRK [1] [%] | %-inhibition, CaMK1δ [2] [%] | %-inhibition of p38δ [3] [%] | %-inhibition of IRAK4 [4] [%] | %-inhibition of MARK1 ([5]; 1 µM) [%] | %-inhibition of Erk1 [6] [%] | %-inhibition of MAP2K6 ([7]; 1 µM) [%] | %-inhibition of MUSK [8] [%] | %-inhibition, CLK1 [9] [%] | %-inhibition of MARK1 ([5]; kinase MARK1, compound at 1 μM) [%] | %-inhibition of MAP2K6 [7, 10] [%]
1 | CS(=O)(=O)CCNCc1ccc(-c2ccc3ncnc(Nc4ccc(OCc5cccc(F)c5)c(Cl)c4)c3c2)o1 [lapatinib] | 0.586 | -4 | 5.43 | -2 | 9 | -4 | 9 | 4.38 | 14 |  | 
2 | CNC(=O)c1cc(Oc2ccc(NC(=O)Nc3ccc(Cl)c(C(F)(F)F)c3)c(F)c2)ccn1 [regorafenib] | 90 | -5.29 | 2.22 | 1.07 |  | -2 |  | 80 | 38 | -24 | 93
3 | CO[C@H]1C[C@@H]2CC[C@@H](C)[C@@](O)(O2)C(=O)C(=O)N2CCCC[C@H]2C(=O)O[C@H]([C@H](C)C[C@@H]2CC[C@@H](OCCO)[C@H](OC)C2)CC(=O)[C@H](C)/C=C(\C)[C@@H](O)[C@@H](OC)C(=O)[C@H](C)C[C@H](C)/C=C/C=C/C=C/1C [everolimus] | 1.26 | -8 | -9 | -6 |  | -0.906 |  | -7 | -7.39 | -0.63 | 13
4 | CC(=O)Nc1cccc(-n2c(=O)n(C3CC3)c(=O)c3c(Nc4ccc(I)cc4F)n(C)c(=O)c(C)c32)c1 [trametinib] | -3 | -3.3 | -2.7 | -5 |  | -1.14 |  | -0.929 | -0.618 | -17 | -21

Source: article PMC3961306, “Comparison of the Cancer Gene Targeting and Biochemical Selectivities of All Targeted Kinase Inhibitors Approved for Clinical Use” (PLoS ONE, 2014)
